Source: ChEMBL document CHEMBL1154029, “Novel derivatives of ISO-1 as potent inhibitors of MIF biological function” (Bioorg Med Chem Lett, 2009)
pIC50: −log10 of the molar value.

How the values were obtained:
[1] = target: T1, Macrophage migration inhibitory factor (Homo sapiens, UniProt P14174); test: Inhibition of dopachrome tautomerase activity of human recombinant MIF
T1 sequence (P14174 whole entry): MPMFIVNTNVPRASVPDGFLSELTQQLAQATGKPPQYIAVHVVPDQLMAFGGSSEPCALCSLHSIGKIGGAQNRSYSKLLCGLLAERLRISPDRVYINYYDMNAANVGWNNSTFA

[2] = target: T1, Macrophage migration inhibitory factor; test: Inhibition of dopachrome tautomerase activity of MIF in human THP1 cells; format: cell-based, THP-1
[3] = target: T1, Macrophage migration inhibitory factor; test: Inhibition of spontaneous secretion/release/recognition of MIF from freshly isolated human PBMC by ELISA; details: for pIC50: read-out: IC50
[4] = target: T2, Macrophage migration inhibitory factor (Homo sapiens) (UniProt P14174); test: Inhibition of MIF-induced TNFalpha production in human PBMC at 100 uM by ELISA
T2 sequence (whole entry): T1 sequence (P14174 whole entry)

[5] = target: T2, Macrophage migration inhibitory factor (Homo sapiens); test: Inhibition of MIF-induced IL6 production in human PBMC at 100 uM by ELISA
[6] = target: T2, Macrophage migration inhibitory factor (Homo sapiens); test: Inhibition of MIF-induced IL1-beta production in human PBMC at 100 uM by ELISA

| pIC50 [1] | pIC50 [2] | IC50 [3] | pIC50 [3] | inhibition [4] [%] | inhibition [5] [%] | inhibition [6] [%] | Compound |
| --- | --- | --- | --- | --- | --- | --- | --- |
| 4.02 | 4.00 |  |  |  |  |  | COc1ccc(C2=NOC(c3noc(C(F)(F)F)n3)C2)cc1F (centres undefined) |
| 5.02 | 4.52 | Not Active |  |  |  |  | COc1ccc(C2=NOC(c3noc(CCC(=O)NC4CCCCC4)n3)C2)cc1F (centres undefined) |
| 4.44 | 4.54 | Not Active |  |  |  |  | O=C1c2ccccc2C(=O)N1CC1CC(c2ccc(O)c(F)c2)=NO1 (centres undefined) |
| < 4.00 | 4.92 |  | 4.22 |  |  |  | COc1ccc(C2=NOC(c3noc(CCC(=O)O)n3)C2)cc1F (centres undefined) |
| 6.10 | 6.30 |  | 5.82 | 31 | 22 | 22 | O=C1c2ccccc2C(=O)N1CCC1CC(c2ccc(O)c(F)c2)=NO1 (centres undefined) |
| < 4.00 | 4.22 |  |  |  |  |  | Cc1nc(C2CC(c3ccc(O)c(F)c3)=NO2)no1 (centres undefined) |
| 4.26 | < 4.00 |  |  |  |  |  | COc1ccc(C2=NOC(Cc3noc(C(F)(F)F)n3)C2)cc1F (centres undefined) |
| < 4.00 | 4.72 | Not Active |  |  |  |  | Oc1ccc(C2=NOC(c3noc(-c4cccc(O)c4O)n3)C2)cc1F (centres undefined) |
|  | < 4.00 |  |  |  |  |  | CN(C)C(=O)NCC1CC(c2ccc(O)c(F)c2)=NO1 (centres undefined) |
|  | < 4.00 |  |  |  |  |  | COc1ccc(C2=NOC(c3noc(-c4ccccc4N(C)C(=O)O)n3)C2)cc1F (centres undefined) |
| 4.30 | 4.82 |  | 4.70 | 39 | 14 | 27 | O=C1CCC(=O)N1CCC1CC(c2ccc(O)c(F)c2)=NO1 (centres undefined) |
|  |  |  |  | 25 | 0 | 25 | COC(=O)CC1CC(c2ccc(O)cc2)=NO1 (centres undefined) |
|  |  |  |  | 34 | 33 | 46 | Oc1ccc(C2=NOC(Cc3noc(C(F)(F)F)n3)C2)cc1F (centres undefined) |
| 4.66 | 4.55 |  | 4.82 | 40 | 39 | 50 | CC(C)(C)C(=O)NCCC1CC(c2ccc(O)c(F)c2)=NO1 (centres undefined) |
| < 4.00 | 4.30 | Not Active |  |  |  |  | COC(=O)CCc1nc(C2CC(c3ccc(O)c(F)c3)=NO2)no1 (centres undefined) |
| 4.66 | 4.54 |  | 4.70 | 53 | 47 | 58 | CC(C)CC(=O)NCCC1CC(c2ccc(O)c(F)c2)=NO1 (centres undefined) |
| < 4.00 | 4.31 |  | 4.82 | 53 | 49 | 66 | O=C(NCCC1CC(c2ccc(O)c(F)c2)=NO1)C(F)(F)F (centres undefined) |
| < 4.00 | 4.60 | Not Active |  |  |  |  | O=C(CCc1nc(C2CC(c3ccc(O)c(F)c3)=NO2)no1)NC1CCCCC1 (centres undefined) |
|  | < 4.00 |  |  |  |  |  | CC(C)(C)C(=O)NCC1CC(c2ccc(O)c(F)c2)=NO1 (centres undefined) |
| 5.15 | 5.70 | Not Active |  |  |  |  | O=C1c2ccccc2C(=O)N1CCCC1CC(c2ccc(O)c(F)c2)=NO1 (centres undefined) |
| 4.49 | 4.70 | Not Active |  |  |  |  | COc1ccc(C2=NOC(c3noc(-c4cccc(OC)c4OC)n3)C2)cc1F (centres undefined) |
| 4.70 | 4.82 |  | 5.00 | 56 | 54 | 52 | O=C(NCCC1CC(c2ccc(O)c(F)c2)=NO1)c1ccc(F)cc1 (centres undefined) |
|  | < 4.00 |  |  |  |  |  | CC(C)CC(=O)NCC1CC(c2ccc(O)c(F)c2)=NO1 (centres undefined) |
|  | < 4.00 |  |  |  |  |  | COc1ccc(C2=NOC(c3noc(C)n3)C2)cc1F (centres undefined) |
| < 4.00 | 4.22 |  |  |  |  |  | Oc1ccc(C2=NOC(c3noc(C(F)(F)F)n3)C2)cc1F (centres undefined) |
